{"source": "patent US12540143B2", "about": "“Methods and compositions for targeted protein degradation” (Ranok Therapeutics (Hangzhou) Co. Ltd., priority 2019, dated 2026)", "key": {"PBRM1 BD5": {"biological_target": "PBRM1 BD5 (Homo sapiens, UniProt Q86U86)", "sequence (Q86U86 653-763 limits assumed)": "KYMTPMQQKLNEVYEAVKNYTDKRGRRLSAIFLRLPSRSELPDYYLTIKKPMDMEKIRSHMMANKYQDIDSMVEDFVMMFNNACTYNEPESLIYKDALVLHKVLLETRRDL", "assay": "Bromodomain Binding Assay", "conditions": "10 μM Compound 074, read-out: Bromodomain Binding % of Control"}, "CECR2": {"biological_target": "CECR2 (Homo sapiens, UniProt Q9BXF3)", "sequence (Q9BXF3 434-538 limits assumed)": "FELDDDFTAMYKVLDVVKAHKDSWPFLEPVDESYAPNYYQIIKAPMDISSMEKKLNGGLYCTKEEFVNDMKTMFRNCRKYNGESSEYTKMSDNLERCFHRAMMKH", "assay": "Bromodomain Binding Assay", "conditions": "10 μM Compound 074, read-out: Bromodomain Binding % of Control"}, "[1]": {"system": "SU-DHL-4 diffuse large B-cell lymphoma xenograft", "assay": "SU-DHL-4 DLBCL xenograft model in mice", "method": "10 μL the cell proliferation reagent CCK-8 (WST-8) was added into each well and incubated at 37° C./5% CO2 for 3-4 hr and the absorbance at 450 nm measured with an En Vision Plate Reader.\n5×10^6 MV-4-11 or 1×10^7 SU-DHL-4 cells were collected and re-suspended in 0.1 mL of serum-free media with Matrigel (1:1 v/v) per mouse for subcutaneous inoculation in isoflurane anesthetized male BALB/c nude or C.B-17 scid mice, respectively (treated in accordance with AAALAC animal welfare guidelines). When the average tumor volumes reached 100-200 mm^3, tumor volume outliers were removed and the remaining animals randomly divided into groups of 6-8 with similar average tumor volumes in each group. […] Animals were intravenously dosed at 25 mg/kg, 50 mg/kg or 100 mg/kg 1×/week for 3 or 4 weeks. The appearance and behavior of each mouse was observed and recorded daily. Body weights and tumor volumes were measured and recorded every 2-4 days and the results were expressed as group means±SEM. Pairwise statistical comparisons between groups were performed by one-way ANOVA, and p<0.05 was considered statistically significant."}, "ATAD2B": {"biological_target": "ATAD2B (Homo sapiens, UniProt Q9ULI0)", "sequence (Q9ULI0 951-1066 limits assumed)": "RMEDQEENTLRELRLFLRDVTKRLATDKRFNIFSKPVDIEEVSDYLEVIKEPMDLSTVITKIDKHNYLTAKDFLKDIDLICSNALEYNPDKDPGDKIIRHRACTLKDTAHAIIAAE", "assay": "Bromodomain Binding Assay", "conditions": "10 μM Compound 074, read-out: Bromodomain Binding % of Control"}, "BRPF1": {"biological_target": "BRPF1 (Homo sapiens, UniProt P55201)", "sequence (P55201 628-732 limits assumed)": "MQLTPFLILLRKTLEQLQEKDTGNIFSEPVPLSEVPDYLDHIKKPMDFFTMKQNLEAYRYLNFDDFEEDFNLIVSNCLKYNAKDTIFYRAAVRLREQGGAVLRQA", "assay": "Bromodomain Binding Assay", "conditions": "10 μM Compound 074, read-out: Bromodomain Binding % of Control"}, "BRD3 BD1": {"biological_target": "BRD3 BD1 (Homo sapiens, UniProt Q15059)", "sequence (Q15059 34-140 limits assumed)": "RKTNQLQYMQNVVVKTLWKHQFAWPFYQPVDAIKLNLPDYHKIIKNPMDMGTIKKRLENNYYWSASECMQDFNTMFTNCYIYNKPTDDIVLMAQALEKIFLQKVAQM", "assay": "Bromodomain Binding Assay", "conditions": "10 μM Compound 074, read-out: Bromodomain Binding % of Control"}, "BRD2 BD1": {"biological_target": "BRD2 BD1 (Homo sapiens, UniProt P25440)", "sequence (P25440 74-180 limits assumed)": "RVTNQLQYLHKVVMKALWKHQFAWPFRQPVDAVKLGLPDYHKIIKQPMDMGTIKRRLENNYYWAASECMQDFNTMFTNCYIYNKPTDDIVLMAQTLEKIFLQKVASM", "assay": "Bromodomain Binding Assay", "conditions": "10 μM Compound 074, read-out: Bromodomain Binding % of Control"}, "TAF1L BD2": {"biological_target": "T1, TAF1L BD2 (Homo sapiens, UniProt Q8IZX4)", "T1 construct": "made in house; host or cells: T7 phage grown in E. coli host derived from BL21", "T1 sequence (Q8IZX4 1517-1626 limits assumed)": "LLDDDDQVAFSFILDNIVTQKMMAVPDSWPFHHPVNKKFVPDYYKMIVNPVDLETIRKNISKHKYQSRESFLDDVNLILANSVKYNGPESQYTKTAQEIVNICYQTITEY", "assay": "Bromodomain Binding Assay", "conditions": "10 μM Compound 074, read-out: Bromodomain Binding % of Control"}, "BAZ2A": {"biological_target": "BAZ2A (Homo sapiens, UniProt Q9UIF9)", "sequence (Q9UIF9 1793-1897 limits assumed)": "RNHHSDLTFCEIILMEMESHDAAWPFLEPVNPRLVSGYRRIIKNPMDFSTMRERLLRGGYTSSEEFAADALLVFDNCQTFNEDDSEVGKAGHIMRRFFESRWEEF", "assay": "Bromodomain Binding Assay", "conditions": "10 μM Compound 074, read-out: Bromodomain Binding % of Control"}, "KAT2A": {"biological_target": "KAT2A (Homo sapiens, UniProt Q92830)", "sequence (Q92830 728-832 limits assumed)": "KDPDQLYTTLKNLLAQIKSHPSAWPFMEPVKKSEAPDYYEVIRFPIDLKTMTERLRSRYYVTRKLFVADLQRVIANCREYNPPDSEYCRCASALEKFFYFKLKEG", "assay": "Bromodomain Binding Assay", "conditions": "10 μM Compound 074, read-out: Bromodomain Binding % of Control"}, "BRD4": {"biological_target": "T2, BRD4 (Homo sapiens, UniProt O60885)", "T2 construct": "endogenous in cells; host or cells: MV4-11", "assay": "BRD4 western blotting in MV4-11 cells", "assay_type": "cell-based", "method": "Cells were then collected by centrifugation, washed one time with cold PBS, supernatants aspirated and cell pellets lysed with 4° C. RIPA lysis buffer containing a protease/phosphatase inhibitor cocktail. The total protein concentrations of cell lysates were determined by BCA Protein Assay kit. Samples were normalized for equivalent protein concentrations, 5× loading buffer added and heated to 100° C. for 10 min and cooled to room temperature. 20 μl of each sample/well was loaded on a SDS-PAGE gel and electrophoresed for 20 min at 80 V, then 120 V for 1.5 hr. Gels were then electroblotted to nitrocellulose membranes using a wet-transfer method at 250 mA for 2.5 hr. Membranes were incubated with blocking buffer for 1 hr and washed 3 times with TBST for 5 min. Then membranes were incubated with anti-BRD4 (Cell Signaling Technology, #13440) and anti-beta-Actin (Cell Signaling Technology, #3700) antibodies diluted in blocking buffer per the manufacturer's recommendation at 4° C. overnight. After washing 3 times, blots were incubated with the appropriate labeled secondary antibody for 1 hr at room temperature and washed again. Images were read on a LI-COR and the optical density values of bands determined by ImageJ software. Data was analyzed using GraphPad Prism 7.0."}, "SMARCA2": {"biological_target": "T3, SMARCA2 (Homo sapiens, UniProt P51531)", "T3 construct": "made in house; host or cells: T7 phage grown in E. coli host derived from BL21", "T3 sequence (P51531 1378-1506 limits assumed)": "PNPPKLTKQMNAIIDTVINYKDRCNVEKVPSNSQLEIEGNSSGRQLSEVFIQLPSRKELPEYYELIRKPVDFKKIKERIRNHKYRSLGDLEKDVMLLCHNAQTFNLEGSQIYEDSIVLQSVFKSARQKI", "assay": "Bromodomain Binding Assay", "conditions": "10 μM Compound 074, read-out: Bromodomain Binding % of Control"}, "TAF1 BD2": {"biological_target": "T4, TAF1 BD2 (Homo sapiens, UniProt P21675)", "T4 construct": "made in house; host or cells: T7 phage grown in E. coli host derived from BL21", "T4 sequence (P21675 1519-1628 limits assumed)": "as the sequence (Q8IZX4 1517-1626 limits assumed) above, with M46V, V51M, I102V, I107L counted along it", "assay": "Bromodomain Binding Assay", "conditions": "10 μM Compound 074, read-out: Bromodomain Binding % of Control"}, "BRD4 BD2": {"biological_target": "BRD4 BD2 (Homo sapiens, UniProt O60885)", "assay": "Bromodomain Binding Assay", "conditions": "10 μM Compound 074, read-out: Bromodomain Binding % of Control"}, "BRD9": {"biological_target": "BRD9 (Homo sapiens, UniProt Q9H8M2)", "sequence (Q9H8M2 136-240 limits assumed)": "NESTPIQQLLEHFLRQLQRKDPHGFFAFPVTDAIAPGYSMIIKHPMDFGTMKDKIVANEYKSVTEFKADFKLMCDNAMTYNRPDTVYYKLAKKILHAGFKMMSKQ", "assay": "Bromodomain Binding Assay", "conditions": "10 μM Compound 074, read-out: Bromodomain Binding % of Control"}, "BPTF": {"biological_target": "BPTF (Homo sapiens, UniProt Q12830)", "assay": "Bromodomain Binding Assay", "conditions": "10 μM Compound 074, read-out: Bromodomain Binding % of Control"}, "[2]": {"system": "MV4-11 acute myeloid leukemia xenograft", "assay": "MV4-11 AML xenograft model in mice", "conditions": "for tumor growth inhibition (FIG. 3a): after 3 weeks of dosing", "method": "MV4-11 cells were plated in a 96-well tissue culture plate at a density of 4,500 cells/90 μL/well and incubated at 37° C./5% CO2 for 24 hr. Cells were then treated with compounds at various concentrations (a 10-point, 3-fold serial dilution series starting at 20 μM) with a final concentration of 0.5% DMSO/well and then incubated in 37° C./5% CO2 for 72 hr. 10 μL the cell proliferation reagent CCK-8 (WST-8) was added into each well and incubated at 37° C./5% CO2 for 3-4 hr and the absorbance at 450 nm measured with an En Vision Plate Reader.\nMV4-11 acute myeloid leukemia and SU-DHL-4 diffuse large B-cell lymphoma (ATCC, #CRL-2957) cells were cultured in medium supplemented with 10% fetal bovine serum at 37° C./5% CO2. 5×10^6 MV-4-11 or 1×10^7 SU-DHL-4 cells were collected and re-suspended in 0.1 mL of serum-free media with Matrigel (1:1 v/v) per mouse for subcutaneous inoculation in isoflurane anesthetized male BALB/c nude or C.B-17 scid mice, respectively (treated in accordance with AAALAC animal welfare guidelines). When the average tumor volumes reached 100-200 mm^3, tumor volume outliers were removed and the remaining animals randomly divided into groups of 6-8 with similar average tumor volumes in each group. […] The appearance and behavior of each mouse was observed and recorded daily. Body weights and tumor volumes were measured and recorded every 2-4 days and the results were expressed as group means±SEM. Pairwise statistical comparisons between groups were performed by one-way ANOVA, and p<0.05 was considered statistically significant."}, "ATAD2": {"biological_target": "ATAD2 (Homo sapiens, UniProt Q6PL18)", "sequence (Q6PL18 980-1092 limits assumed)": "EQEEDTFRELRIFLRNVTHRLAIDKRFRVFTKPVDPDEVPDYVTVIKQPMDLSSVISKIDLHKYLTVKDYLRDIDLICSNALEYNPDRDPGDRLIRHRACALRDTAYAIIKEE", "assay": "Bromodomain Binding Assay", "conditions": "10 μM Compound 074, read-out: Bromodomain Binding % of Control"}, "[3]": {"conditions": "100 mg/kg intravenous 1×/week, after 4 weeks of dosing"}}, "data": [{"smiles": "Cc1sc2c(c1C)C(c1ccc(Cl)cc1)=N[C@@H](CC(=O)N1CCC(CN3CCN(Cc4ccc(-n5c(O)nnc5-c5cc(C(C)C)c(O)cc5O)cc4)CC3)CC1)c1nnc(C)n1-2.Cl", "note": "[Compound 74, (S)-2-(4-(4-chlorophenyl)-2,3,9-trimethyl-6H-thieno[3,2-f][1,2,4]triazolo[4,3-a][1,4]diazepin-6-yl)-1-(4-((4-(4-(3-(2,4-dihydroxy-5-isopropylphenyl)-5-hydroxy-4H-1,2,4-triazol-4-yl)benzyl)piperazin-1-yl)methyl)piperidin-1-yl)ethan-1-one hydrochloride]", "values": [{"measurement": "remaining activity at 10 µM", "setting": "PBRM1 BD5", "value": "> 75", "unit": "%"}, {"measurement": "remaining activity at 10 µM", "setting": "CECR2", "value": "> 75", "unit": "%"}, {"measurement": "tumor growth inhibition (FIG. 4a)", "setting": "[1]; [3]", "value": "significant tumor growth inhibition"}, {"measurement": "tumor vs control (T/C) value", "setting": "[1]; [3]", "value": 41, "unit": "%"}, {"measurement": "animal deaths and body weights (FIG. 4b)", "setting": "[1]; any dose level, SU-DHL-4 xenograft", "value": "No animal deaths or significant effects on body weights were observed"}, {"measurement": "remaining activity at 10 µM", "setting": "ATAD2B", "value": "> 75", "unit": "%"}, {"measurement": "remaining activity at 10 µM", "setting": "BRPF1", "value": "> 75", "unit": "%"}, {"measurement": "remaining activity at 10 µM", "setting": "BRD3 BD1", "value": "< 10", "unit": "%"}, {"measurement": "remaining activity at 10 µM", "setting": "BRD2 BD1", "value": "< 10", "unit": "%"}, {"measurement": "remaining activity at 10 µM", "setting": "TAF1L BD2", "value": "> 75", "unit": "%"}, {"measurement": "remaining activity at 10 µM", "setting": "BAZ2A", "value": "> 75", "unit": "%"}, {"measurement": "remaining activity at 10 µM", "setting": "KAT2A", "value": "> 75", "unit": "%"}, {"measurement": "BRD4 degradation by western blotting with proteasome inhibitor bortezomib (FIG. 2)", "setting": "BRD4; MV4-11 cells treated with both compound 074 and bortezomib", "value": "BRD4 degradation was blocked"}, {"measurement": "BRD4 degradation by western blotting (FIG. 1)", "setting": "BRD4; MV4-11 cells, 24 hr, 100 and 300 nM", "value": "BRD4 degradation was observed"}, {"measurement": "remaining activity at 10 µM", "setting": "SMARCA2", "value": "> 75", "unit": "%"}, {"measurement": "remaining activity at 10 µM", "setting": "TAF1 BD2", "value": "> 75", "unit": "%"}, {"measurement": "remaining activity at 10 µM", "setting": "BRD4 BD2", "value": "< 10", "unit": "%"}, {"measurement": "remaining activity at 10 µM", "setting": "BRD9", "value": "> 75", "unit": "%"}, {"measurement": "remaining activity at 10 µM", "setting": "BPTF", "value": "> 75", "unit": "%"}, {"measurement": "animals tumor free at the end of the study", "setting": "[2]; 50 mg/kg intravenous 1×/week", "value": "1 out of 6"}, {"measurement": "tumor growth inhibition (FIG. 3a)", "setting": "[2]; 50 mg/kg intravenous 1×/week", "value": "significant tumor growth inhibition"}, {"measurement": "animals tumor free at the end of the study", "setting": "[2]; 100 mg/kg intravenous 1×/week", "value": "4 out of 6"}, {"measurement": "tumor growth inhibition (FIG. 3a)", "setting": "[2]; 100 mg/kg intravenous 1×/week", "value": "significant tumor growth inhibition"}, {"measurement": "animal deaths and body weights (FIG. 3b)", "setting": "[2]; any group, MV4-11 xenograft", "value": "No animal deaths or significant effects on body weights were observed"}, {"measurement": "remaining activity at 10 µM", "setting": "ATAD2", "value": "> 75", "unit": "%"}]}]}
